Entries after “also recorded” stand apart in the source; their conditions may differ.
Test system: WT mice
Experiment: Endurance exercise on treadmill until exhaustion
Type: in vivo, mouse
Settings: for muscle function / exercise capacity of young and old WT mice: 3 to 15 month-old WT mice
Protocol: First, whether a single intraperitoneal injection of uncarboxylated mouse osteocalcin (osteocalcin) (100 ng/g of body weight) immediately before exercise would improve the exercise capacity of 3 month-old WT mice was tested.
To determine if osteocalcin has the same ability in older mice, 12 and 15 month-old mice that have low circulating osteocalcin levels were injected prior to running with 500 ng/g of body weight of osteocalcin in order to raise their circulating levels substantially. […] This was due to an increase in the phosphorylation of Akt, AMPK and HSL, as well as in glucose uptake, that occurred to a greater extent in oxidative muscles that express Gprc6a at the highest level, than in glycolytic muscles (FIG. 31C-F). Whether chronic delivery of osteocalcin through mini-pumps (90 ng/hour) for 28 days would increase muscle function in 9 month old mice that have the lowest circulating osteocalcin levels was also tested. […] This improved ability to perform exercise was caused in part by an increase in the expression in muscle of the fatty acid transporter Fatp1 and an activation of the Akt pathway (FIG. 31H-).
For exercise studies, all mice were trained before the tests to run on a treadmill (Harvard apparatus) for three days (10 minutes/day). The day of the test, mice were acclimated to the treadmill for 5 minutes followed by 10 minutes running at a constant speed of 17 cm/s, then a gradual increase in the speed up to 30 cm/s. Next, mice were run until exhaustion as defined by the number of times a mouse fell off to the electric grid during one minute (>15). Measurements of muscle strength were carried out using a grip strength meter (Columbus instruments). Values are expressed as the average of five single measurements, taken one minute apart from each other. For all biochemical and metabolic analyses performed, blood/tissues were collected and processed either at rest or at the end of a 40 min run (30 cm/s).

Substance: uncarboxylated osteocalcin: Recombinant uncarboxylated mouse osteocalcin, bacterially produced, purified on glutathione beads and cleaved from the GST subunit by thrombin (YLGASVPSPDPLEPTREQCELNPACDELSDQYGLKTAYKRIYGITI)
- increase of time and distance run on the treadmill before exhaustion (3 month-old WT mice, single intraperitoneal injection 100 ng/g of body weight immediately before exercise): over 20%
- muscle function / exercise capacity of young and old WT mice (listed as Osteocalcin): increases
- muscle function / exercise capacity of young and old WT mice (listed as osteocalcin): can improve
- time and distance run / exercise capacity of older mice (12 and 15 month-old mice, 500 ng/g of body weight injected prior to running): the exercise capacity of 3 month-old mice; also recorded: the same time and distance as 3 month-old untreated mice; also recorded: run like young mice
- time and distance run on the treadmill before exhaustion (mini-pumps 90 ng/hour for 28 days, 9 month old mice): significant increase
- increase of distance run (wild-type mice, simple injection while they run on a treadmill): 20%
- exercise capacity of young mice (young (3 month-old) WT mice, exogenous osteocalcin): increases; also recorded: sufficient to increase

From patent US11191811B2, “Osteocalcin as a treatment for frailty associated with aging” (THE TRUSTEES OF COLUMBIA UNIVERSITY IN THE CITY OF NEW YORK, priority 2014, dated 2021)
